We go through three compounds from publication PMC5481814, “Stapled Voltage-Gated Calcium Channel (CaV) α-Interaction Domain (AID) Peptides Act As Selective Protein–Protein Interaction Inhibitors of CaV Function” (ACS Chemical Neuroscience, 2017).

Starred links: 1 amine or outer side, 2 acyl side, 3 side chain; linkers in the order of their positions; H or OH if unused. Positions of bridges follow the written chain, without caps; N, C: chain ends. Residues, ends and D or L forms follow the SMILES beside them. No end group written: not given here. mXylylene = c1cc(C[*:1])cc(C[*:2])c1 Bounds are passed on as bounds.

One data set concerns the target CaVβ2a core (Rattus norvegicus, UniProt Q8VGC3). Kind of data set: Isothermal titration calorimetry, AID peptide:CaVβ2a binding. The note with it: for Kd: 150 mM KCl, 10 mM potassium phosphate, 20 μM peptide into 2 μM CaVβ2a core. From the text:
Having determined that the backbone staples are able to affect AID helix content (Figure 1) and are structurally compatible with the CaVβ-AID interaction (Figure 2), we used isothermal titration calorimetry (ITC) to investigate whether the AID staples impacted binding thermodynamics. […] (Figure 3A, Table 1). This binding reaction is driven by a favorable enthalpic component (ΔH = −15.6 ± 2.4 kcal mol^–1) that is opposed by a large entropic cost (ΔS = −16.7 ± 6.0 cal mol^–1 K^–1) that most likely results from the requirement to reduce the degrees of freedom of the highly disordered ligand upon binding.
Titrations were performed at 15 °C using a VP-ITC microcalorimeter (MicroCal). Samples were dialyzed overnight at 4 °C (Slide-A-Lyzer, 2 kDa molecular weight cutoff, Thermo Scientific) against 150 mM KCl and 10 mM potassium phosphate, pH 7.3. After 30 min centrifugation at 40 000 rpm at 4 °C, protein concentrations were determined by absorbance at 280 nm.[91] All samples were degassed for 5 min prior to loading into the calorimeter. CaV1.2 CaVβ2a core at a concentration of 2 μM was titrated with 20 μM modified or unmodified AID peptide with one 4 μL injection followed by 29 injections of 10 μL of titrant. To correct the baseline, heat of dilution from titrations of injectant into buffer was subtracted. Data were processed with MicroCal Origin 7.0 using a single site binding model.
For orientation: ITC needs no label: the signal is the heat of the interaction.

The target in a further data set is CaV1.2-Y437A:CaVβ2a (Rattus norvegicus, UniProt Q8VGC3). Briefly: Peptide injection competition, two-electrode voltage clamp, CaV1.2-Y437A:CaVβ2a channels in Xenopus oocytes. The note with it: 400 μM peptide; for ti300, percent inactivation at 300 ms / A1, relative amplitude of fast inactivation component / A2, relative amplitude of second inactivation component / τ1, fast inactivation time constant / τ2, second inactivation time constant: +20 mV; for ti300, percent inactivation at 300 ms / V1/2, midpoint of activation: Ca2+ charge carrier; for ti300, percent inactivation at 300 ms / A1, relative amplitude of fast inactivation component / A2, relative amplitude of second inactivation component / τ1, fast inactivation time constant / τ2, second inactivation time constant / V1/2, midpoint of activation / Imax, maximal current amplitude: mean ± SEM. A general note: Two-electrode voltage clamp holds a large cell at a set potential and records current.

Another data set has as its target T1, CaV1.2:CaVβ3 (Oryctolagus cuniculus, UniProt P54286).
T1 construct: expressed in transfected cells; host or cells: Xenopus oocytes (mRNA injection)
Kind of data set: Peptide injection competition, two-electrode voltage clamp, CaV1.2:CaVβ3 channels in Xenopus oocytes. Particulars: for V1/2, midpoint of activation: Ca2+ charge carrier. The class given is cell-based, human CaV1.2; Xenopus oocytes.

Data set [1] in a line: Circular dichroism of AID peptides (helical content). It is filed as physicochemical. The note with it: 70 μM, 4 °C, 50 mM KCl, 10 mM potassium phosphate, pH 7.3, 2 mm cuvette, triplicate points. As for the experimental part:
Circular dichroism spectra were measured in a 2 mm path length quartz cuvette (Hellma), 50 mM KCl, and 10 mM KH2PO4/K2HPO4, pH 7.3, using an Aviv model 215 spectropolarimeter (Aviv Biomedical) equipped with a Peltier temperature controller. Wavelength scans from 320 to 190 nm were taken at 4 °C. Each point was determined in triplicate from the same sample and subtracted by the average of a triplicate buffer scan. Each sample was checked for purity by HPLC. Molar ellipticity was calculated as follows: θ = 100(Δm)/(Cnl), where Δm is the CD signal in millidegrees after buffer subtraction, C is the millimolar peptide concentration, n is the number of residues in the peptide, and l is the cuvette path length in centimeters.

[2] abbreviates: ITC, 15 °C, pH 7.3, single site model, n = 3 (Cav1.2 AID), 2 (AID-CEN), 3 (AID-CAP).
Setting [3] is: 2.8 mM peptide, over 30 min postinjection.
Where [4] appears, read: 5 min postinjection, 2.8 mM peptide, +20 mV, double exponential fit, mean ± SEM, N = 6 (AID-CAP), 7 (AID).
Where [5] appears, read: 5 min postinjection, 2.8 mM peptide, +20 mV, monoexponential fit, mean ± SEM, N = 6 (AID-CAP), 7 (AID).
Where [6] appears, read: 5 min postinjection, 2.8 mM peptide, mean ± SEM, N = 6 (AID-CAP), 7 (AID).
Where [7] appears, read: 30 min postinjection, 2.8 mM peptide, +20 mV, monoexponential fit, mean ± SEM, N = 6 (AID-CAP), 7 (AID).
[8] abbreviates: 30 min postinjection, 2.8 mM peptide, mean ± SEM, N = 6 (AID-CAP), 7 (AID).
Where [9] appears, read: ITC, 15 °C, pH 7.3, n = 3 (Cav1.2 AID), 2 (AID-CEN), 3 (AID-CAP).

T1 sequence (P54286 whole entry): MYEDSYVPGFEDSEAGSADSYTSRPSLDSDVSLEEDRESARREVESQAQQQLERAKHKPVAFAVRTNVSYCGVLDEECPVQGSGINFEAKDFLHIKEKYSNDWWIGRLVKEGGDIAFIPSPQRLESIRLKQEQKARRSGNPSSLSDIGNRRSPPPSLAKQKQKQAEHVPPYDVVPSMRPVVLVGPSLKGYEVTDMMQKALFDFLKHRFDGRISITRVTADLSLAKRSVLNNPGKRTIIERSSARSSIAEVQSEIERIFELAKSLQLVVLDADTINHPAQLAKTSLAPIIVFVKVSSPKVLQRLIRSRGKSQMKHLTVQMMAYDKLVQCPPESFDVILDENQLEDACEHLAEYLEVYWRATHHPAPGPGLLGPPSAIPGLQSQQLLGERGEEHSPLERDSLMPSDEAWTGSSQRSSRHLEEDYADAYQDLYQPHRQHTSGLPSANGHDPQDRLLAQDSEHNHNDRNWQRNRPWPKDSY

In general, Kd refers to a measure of binding affinity in units of concentration. Read a low Kd as tighter binding. With `CC[C@H](C)[C@H](NC(=O)[C@H](Cc1c[nH]c2ccccc12)NC(=O)[C@H](CC(=O)O)NC(=O)[C@H](CC(C)C)NC(=O)[C@H](Cc1ccc(O)cc1)NC(=O)CNC(=O)[C@H](CCCCN)NC(=O)[C@H](CC(C)C)NC(=O)[C@H](CC(=O)O)NC(=O)[C@@H]1CSCc2cccc(c2)CSC[C@H](N)C(=O)N[C@@H](CO)C(=O)N2CCC[C@H]2C(=O)N[C@@H](CC(C)C)C(=O)N[C@@H](CCC(=O)O)C(=O)N1)C(=O)N[C@H](C(=O)N[C@@H](CCC(N)=O)C(=O)N[C@@H](C)C(=O)N[C@@H](CCC(=O)O)C(N)=O)[C@@H](C)O` [AID-CAP] (H-CSPLECDLKGYLDWITQAE-NH2; linker 1-6 via mXylylene), the Kd at CaVβ2a core (setting [2]) is 5.1 ± 1.6 nM.

Regarding `CC[C@H](C)[C@H](NC(=O)[C@H](Cc1c[nH]c2ccccc12)NC(=O)[C@@H]1CSCc2cccc(c2)CSC[C@H](NC(=O)[C@H](CC(C)C)NC(=O)[C@H](CC(=O)O)NC(=O)[C@H](CCC(=O)O)NC(=O)[C@H](CCC(=O)O)NC(=O)[C@H](CC(C)C)NC(=O)[C@@H]2CCCN2C(=O)[C@H](CO)NC(=O)[C@H](C)N)C(=O)NCC(=O)N[C@@H](Cc2ccc(O)cc2)C(=O)N[C@@H](CC(C)C)C(=O)N1)C(=O)N[C@H](C(=O)N[C@@H](CCC(N)=O)C(=O)N[C@@H](C)C(=O)N[C@@H](CCC(=O)O)C(N)=O)[C@@H](C)O` [AID-CEN] (H-ASPLEEDLCGYLCWITQAE-NH2; linker 9-13 via mXylylene), on CaVβ2a core (setting [2]), the dissociation constant Kd is 5.2 ± 1.5 nM.

As to CQQLEEDLKGYLDWITQAE-NH2 [AID], the “P vs HotA, all panels of Figure 5 (ti300, A1, ΔV1/2, Imax)” value at CaV1.2-Y437A:CaVβ2a is recorded as less than 0.001. In addition, at CaV1.2-Y437A:CaVβ2a (30 min postinjection), the “effect on inactivation / CaVβ binding, in words” value is reported as “interfered completely with CaVβ binding”; the “ti300, percent inactivation at 300 ms” value stood at 44.8 ± 2.1%; the “A1, relative amplitude of fast inactivation component” value was determined as 24.5 ± 3.0%; the “A2, relative amplitude of second inactivation component” value stood at 31.0 ± 1.9%. On CaV1.2-Y437A:CaVβ2a (30 min postinjection), the “τ1, fast inactivation time constant” value is reported as 53.3 ± 14.4 ms; the “τ2, second inactivation time constant” value is 304.0 ± 50.9 ms; the “V1/2, midpoint of activation” value turned out to be 15.1 ± 2.0 mV; the “Imax, maximal current amplitude” value is “–0.242 ± 0.021”. Moreover, on CaV1.2-Y437A:CaVβ2a (over 30 min postinjection, vs water or HotA), the “rundown of Imax” value was “consistently higher rundown”. At CaV1.2-Y437A:CaVβ2a (5 min postinjection), the “ti300, percent inactivation at 300 ms” value is 64.9 ± 1.9%; the “A1, relative amplitude of fast inactivation component” value is given as 48.5 ± 1.8%; the “A2, relative amplitude of second inactivation component” value is given as 24.1 ± 1.6%; the “τ1, fast inactivation time constant” value is listed as 35.0 ± 1.5 ms. Besides, on CaV1.2-Y437A:CaVβ2a (5 min postinjection), the “τ2, second inactivation time constant” value is reported as 251.5 ± 16.1 ms; the “V1/2, midpoint of activation” value was 2.9 ± 1.7 mV; the “Imax, maximal current amplitude” value is on record as “–0.883 ± 0.111”. Moreover, at CaV1.2:CaVβ3 (2.8 mM peptide vs 4 mM HotA), the “P vs HotA, Figure 7B, E, F (ti300, Imax)” value is less than 0.001 and the “P vs HotA, Figure 7C, D (inactivation τ, ΔV1/2)” value is less than 0.05. At CaV1.2:CaVβ3 (setting [3]), the “change in channel inactivation kinetics, in words” value is “changed from one having two components to a monoexponential process” and the “current rundown, in words” value is listed as “strongly increased current rundown”. In addition, on CaV1.2:CaVβ3 (setting [4]), the A1 stood at 54.0 ± 2.7%, the A2 stood at 34.1 ± 1.4%, the τ1 was 40.0 ± 5.2 ms and the τ2 is listed as 354.4 ± 119.2 ms. At CaV1.2:CaVβ3 (setting [5]), this compound had an A1 of 76.9 ± 3.1% and a τ1 of 62.6 ± 7.6 ms. Further, the “ti300, percent inactivation at 300 ms” value at CaV1.2:CaVβ3 (5 min postinjection, 2.8 mM peptide, +20 mV, mean ± SEM, N = 6 (AID-CAP), 7 (AID)) is 73.4 ± 2.0%. Besides, on CaV1.2:CaVβ3 (setting [6]), the “V1/2, midpoint of activation” value is on record as 10.4 ± 2.2 mV and the “Imax, maximal current amplitude” value was “–0.860 ± 0.096”. On CaV1.2:CaVβ3 (setting [7]), this compound returned an A1 of 65.0 ± 4.0% and a τ1 of 118.2 ± 11.0 ms. On CaV1.2:CaVβ3 (30 min postinjection, 2.8 mM peptide, +20 mV, mean ± SEM, N = 6 (AID-CAP), 7 (AID)), the “ti300, percent inactivation at 300 ms” value is reported as 49.8 ± 1.9%. Moreover, at CaV1.2:CaVβ3 (setting [8]), the “V1/2, midpoint of activation” value amounted to 21.0 ± 2.0 mV and the “Imax, maximal current amplitude” value was “–0.116 ± 0.010”. Further, the “effect on CaV1.2α1:CaVβ3 interaction, in words” value on CaV1.2:CaVβ3 (30 min postinjection, AID, AID-CAP 2.8 mM, HotA 4 mM) was “near complete disruption of the CaV1.2α1:CaVβ3 interaction”. Further, on CaVβ2a core (setting [2]), binding was characterised by a dissociation constant (Kd) of 6.6 ± 2 nM and the “N (binding stoichiometry)” value came out at 0.94 ± 0.07. Further, on CaVβ2a core (setting [9]), the ΔH entry was “–15.6 ± 2.4 kcal mol^–1” and the ΔS result was “–16.7 ± 6.0 cal mol^–1 K^–1”. Moreover, at CaVβ2a core (ratio of Kd to that of CaV1.2 AID), the “Kd/Kd CaV1.2 AID” value was 1. Also, the “CD spectrum / helical content, in words” value in data set [1] is recorded as “absent”.
